Source: patent publication US20240182446A1, “TYK2 INHIBITOR COMPOUND CONTAINING BICYCLIC RING” (CHIA TAI TIANQING PHARMACEUTICAL GROUP CO., LTD., priority 2021, published 2024)
Where two headings read alike, the source gives them in different places. Marks after values point to notes of the source that are not given here.

Legend:
[1] = test system: STAT3 phosphorylation in Jurkat cells; test: Detection of STAT3 phosphorylation using Jurkat cells stimulated with IFN-α; format: cell-based; conditions: Homo sapiens, IFN-α 25 ng/mL, 30 min, compound pre-incubation 1.5 h
Protocol: 20 μL of Jurkat cells growing at log phase were taken and counted, and the required number of cells (mL) were taken and centrifuged at 1300 rpm for 3 min. Phenol red-free 1640 base medium (Hyclone) was added to adjust the cell density to about 1.7*10E7 cells/mL. The cells were seeded according to the above cell density in a 384-well plate (small-volume white plate) at 8 μL per well. The compound was added with a nanoliter pipettor, and the plate was incubated for 1.5 h. IFN-α (Beijing Sino Biological) was diluted to 75 ng/mL (with a final concentration of 25 ng/mL) with phenol red-free 1640 base medium. Subsequently, 4 μL of IFN-α (3×) was added to each well according to the plate distribution. The blank group was seeded with cells, without compound and IFN-α. The control group was seeded with cells, without compound but with IFN-α. The plate was incubated at 37° C. for 30 min. 4 μL of lysis buffer (4×) containing blocking buffer was added immediately, and the cells were lysed by shaking at room temperature for 40 min. […] pre-mixed antibody (vol/vol) in assay buffer was added and the plate was covered. The mixture was mixed well by centrifugation and incubated overnight at room temperature. Signal values at 665 nm/620 nm were detected using a PE Envision multi-functional microplate reader, and IC50 was calculated by tour-parameter fitting.

[2] = In vitro stability in liver microsomes (mouse); format: in vitro ADME; conditions: compound 1 μM
Protocol: (§1) 300 μL of the final incubation system contained 30 μL of liver microsomes (protein concentration: 5 mg/mL). 30 μL of NADPH+MgCl2, 3 μL of the test compound (in acetonitrile), and 237 μL of PBS buffer (pH 7.4), wherein the proportion of the organic solvent (acetonitrile) was 1% (volume ratio). Samples were prepared in duplicate of 0.30 mL for each specie. Tubes each containing 270 μL of a mixed solution of substrate and enzyme and NADPH were pre-incubated at 37° C. for 5 min. 30 μL of NADPH+MgCl2 was added and the mixture was mixed. 50 μL of the mixture was taken at 0 min, 10 min, 30 min, and 60 min, and 300 μL of glacial acetonitrile containing an internal standard was added to terminate the reaction.
(§2) 300 μL of glacial acetonitrile containing an internal standard (20 ng/mL) was added to 50 μL of the incubated sample for precipitation. The mixture was vortexed for 10 min and centrifuged (13,000 rpm, 20° C.) for 10 min. 70 μL of supernatant was taken and diluted with 70 μL of ultrapure water. After being mixed well, 0.5 μL of the resulting sample was subjected to LC/MS/MS analysis.

[3] = In vitro stability in liver microsomes (monkey); format: in vitro ADME; conditions: compound 1 μM
Protocol: as §1, §2

[4] = In vitro stability in liver microsomes (human); format: in vitro ADME; conditions: compound 1 μM
Protocol: as §1, §2

[5] = In vivo pharmacokinetics in mice; conditions: ICR mice, plasma; for AUC(0-t): read-out: AUC(0-10 h); for MRT last: read-out: MRT(0-t)
Protocol: ICR mice (Shanghai Institute of Planned Parenthood Research) of 6-8 weeks old, weighing 20-24 g, were randomized into groups of 9 after 3-5 days of acclimatization, and the test compounds at a dose of 15 mg/kg or 30 mg/kg were administered intragastrically to the mice.
The animals to be tested (ICR mice) were fasted for 12 h before administration and food was provided 4 h after administration, and water was freely drunk before and after the experiment and during the experiment.
After intragastrric administration, about 0.1 mL of blood was collected from the orbit at 0.25 (15 min), 0.5 (30 min), 1, 2, 4, 6, 8, and 10 h. Each mouse was subjected to blood collection at 3-4 time points, with three mice per time point. The blood samples were mixed with EDTA-K2 anticoagulant, transferred to a centrifuge within 30 min, and then centrifuged at 4000 rpm for 10 min. at 4° C. to separate the plasma. All the plasma samples were collected and immediately stored at −20° C. for testing.
400 μL of acetonitrile solution containing an internal standard (20 ng/mL) was added to 20 μL of the collected plasma sample to be tested. The mixture was shaken and mixed well for 10 min, and centrifuged at 13,000 rpm for 10 min 50 μL of supernatant was taken and diluted with 100 μL of ultrapure water. After being mixed well, 0.5 μL of the resulting sample was subjected to LC/MS/MS, and a chromatogram was recorded.
Oral exposure of the compounds disclosed herein was evaluated by in vivo pharmacokinetic experiments in mice.

[6] = test system: mouse colitis model induced by anti-mouse CD40 antibody; test: Pharmacodynamics in mouse colitis model induced by anti-CD40 mAb antibody; format: in vivo, CB17-SCID mice; conditions: Day 7, vs model control
Protocol: SPF-grade male CB17-SCID mice (6-8 weeks old) were divided into groups on the first day of the experiment. On the first day of the experiment, the mice in the blank group were intraperitoneally injected with PBS, while the mice in the model group were intraperitoneally injected with anti-mouse CD40 antibody (100 μg, diluted with PBS as a modeling agent solution), so as to establish a mouse colitis model. The injection volume for all groups of mice was 0.1 mL.
The day of grouping was determined as Day 1, and the intragastric administration was started on the grouping day, with a volume of 2 mL/kg administered twice daily for 6 consecutive days. The vehicle for intragastric administration was: DMSO:PEG400=5:95 (volume ratio).
Animal body weights were monitored daily during the experiment. On Day 7, the end point of the experiment, all mice were euthanized and tissue samples were collected. Mice were euthanized by cervical dislocation, abdomen of the mice were cut open, and mouse spleens were collected, weighed, and photographed. The colorectum was separated from the small intestine from the end of the cecum to the anus, and the whole colorectum was removed, photographed, and then dissected longitudinally along its longitudinal axis. The intestinal contents were cleansed with a pre-cooled saline solution. The rinsed colorectum was laid flat in a large flat dish with the mucosal side thereof facing upward. Residual saline solution was removed from the […] with filter paper, and colonic tissues were taken for weighing.
The inhibition rate (%) was calculated according to the following formula: inhibition rate (%)=(M−T)/(M−C)*100% (T: treatment group; C: blank control group; M: model control group).

Compound: [2H]C([2H])([2H])NC(=O)c1nnc(NC(=O)C2CC2)cc1Nc1cccc(-c2ncc(-c3cccnc3)cn2)c1OC [Compound 1-j]
- IC50 [1]: 4.5 nM

Compound: [2H]C([2H])([2H])NC(=O)c1nnc(NC(=O)C2CC2)cc1Nc1cccc(-c2ncc(-c3ccc(F)nc3)cn2)c1OC [Compound 3-j]
- Mouse Residuals at 60 min (%) [2]: 99.92%
- Monkey Residuals at 60 min (%) [3]: 95.82%
- Human Residuals at 60 min (%) [4]: 103.99%

Compound: [2H]C([2H])([2H])NC(=O)c1nnc(NC(=O)C2CC2)cc1Nc1cccc(-c2ncc(-c3cccnc3F)cn2)c1OC [Compound 5-j]
- AUC(0-inf) ([5]; mouse, po, IG 30 mg/kg): 62600 ng·h/mL
- Tmax ([5]; mouse, po, IG 30 mg/kg): 0.5 h
- half-life ([5]; mouse, po, IG 30 mg/kg): 4.48 h
- AUC(0-t) ([5]; mouse, po, IG 30 mg/kg): 60800 ng·h/mL
- Cmax ([5]; mouse, po, IG 30 mg/kg, read-out: Cmax): 8100 ng/mL
- MRT last ([5]; mouse, po, IG 30 mg/kg): 6.26 h
- Mouse Residuals at 60 min (%) [2]: 99.08%
- IC50 [1]: 2.9 nM
- Monkey Residuals at 60 min (%) [3]: 99.31%
- Human Residuals at 60 min (%) [4]: 107.15%

Compound: [2H]C([2H])([2H])NC(=O)c1nnc(NC(=O)C2CC2)cc1Nc1cccc(-c2ncc(-c3cccnc3C(F)(F)F)cn2)c1OC [Compound 6-j]
- Cmax ([5]; IG 30 mg/kg): 12534 ng/mL
- t1/2 ([5]; IG 30 mg/kg): 6.26 h
- AUC(0-inf) ([5]; mouse, po, IG 30 mg/kg): 63600 ng·h/mL
- Tmax ([5]; mouse, po, IG 30 mg/kg): 0.5 h
- AUC(0-t) ([5]; mouse, po, IG 30 mg/kg): 61200 ng·h/mL
- MRT last ([5]; mouse, po, IG 30 mg/kg): 4.74 h
- IC50 [1]: 2.4 nM
- Spleen coefficient Inhibition rate (%) ([6]; 5 mg/kg i.g. bid for 6 days): 81.78%**
- Spleen weight Inhibition rate (%) ([6]; 5 mg/kg i.g. bid for 6 days): 83.38%
- Weight of intestinal tissue per unit length Inhibition rate (%) ([6]; 5 mg/kg i.g. bid for 6 days): 76.21%***
- Human Residuals at 60 min (%) [4]: 100.18%

Compound: [2H]C([2H])([2H])NC(=O)c1nnc(NC(=O)C2CC2)cc1Nc1cccc(-c2ncc(-c3ccc(F)nc3F)cn2)c1OC [Compound 12-j]
- IC50 [1]: 4.5 nM

Compound: [2H]C([2H])([2H])NC(=O)c1nnc(NC(=O)C2CC2)cc1Nc1cccc(-c2ncc(N3CCCC3=O)cn2)c1OC [Compound 18-h]
- Mouse Residuals at 60 min (%) [2]: 94.80%
- IC50 [1]: 5.3 nM
- Human Residuals at 60 min (%) [4]: 106.77%

Compound: [2H]C([2H])([2H])NC(=O)c1nnc(NC(=O)C2CC2)cc1Nc1cccc(-c2ncc(-c3cccnc3C#N)cn2)c1OC [Compound 26-h]
- IC50 [1]: 5.3 nM

Compound: [2H]C([2H])([2H])NC(=O)c1nnc(NC(=O)C2CC2)cc1Nc1cccc(-c2ncc(-c3ccnn3C)cn2)c1OC [Compound 34-h]
- AUC(0-inf) ([5]; mouse, po, IG 15 mg/kg): 66700 ng·h/mL
- Tmax ([5]; mouse, po, IG 15 mg/kg): 4 h
- half-life ([5]; mouse, po, IG 15 mg/kg): 4.19 h
- AUC(0-t) ([5]; mouse, po, IG 15 mg/kg): 65300 ng·h/mL
- Cmax ([5]; mouse, po, IG 15 mg/kg, read-out: Cmax): 10200 ng/mL
- MRT last ([5]; mouse, po, IG 15 mg/kg): 4.44 h
- Mouse Residuals at 60 min (%) [2]: 92.69%
- IC50 [1]: 5.7 nM
- Spleen coefficient Inhibition rate (%) ([6]; 5 mg/kg i.g. bid for 6 days): 83%***
- Spleen weight Inhibition rate (%) ([6]; 5 mg/kg i.g. bid for 6 days): 82%***
- Weight of intestinal tissue per unit length Inhibition rate (%) ([6]; 5 mg/kg i.g. bid for 6 days): 70%***
- Human Residuals at 60 min (%) [4]: 99.75%

Compound: [2H]C([2H])([2H])NC(=O)c1nnc(NC(=O)C2CC2)cc1Nc1cccc(-c2ncc(N3CC[C@@H](O)C3)cn2)c1OC [Compound 44-j]
- Mouse Residuals at 60 min (%) [2]: 91.31%
- Human Residuals at 60 min (%) [4]: 98.44%

Compound: [2H]C([2H])([2H])NC(=O)c1nnc(NC(=O)C2CC2)cc1Nc1cccc(-c2ncc(N3CC(C)(C)CC3=O)cn2)c1OC [Compound 47-j]
- IC50 [1]: 2.4 nM

Compound: [2H]C([2H])([2H])NC(=O)c1nnc(NC(=O)C2CC2)cc1Nc1cccc(-c2ncc(N3CCC(C)(C)C3=O)cn2)c1OC [Compound 49-j]
- IC50 [1]: 5.2 nM

Compound: [2H]C([2H])([2H])NC(=O)c1nnc(NC(=O)C2CC2)cc1Nc1cccc(-c2ncc(N3CC(O)C3)cn2)c1OC [Compound 51-j]
- Mouse Residuals at 60 min (%) [2]: 96.42%
- IC50 [1]: 7.1 nM

Compound: [2H]C([2H])([2H])NC(=O)c1nnc(NC(=O)C2CC2)cc1Nc1cccc(-c2ncc(-c3cccnc3C)cn2)c1OC [Compound 52-j]
- IC50 [1]: 2.7 nM
- Spleen coefficient Inhibition rate (%) ([6]; 15 mg/kg i.g. bid for 6 days): 101%***
- Spleen weight Inhibition rate (%) ([6]; 15 mg/kg i.g. bid for 6 days): 102%***
- Weight of intestinal tissue per unit length Inhibition rate (%) ([6]; 15 mg/kg i.g. bid for 6 days): 101%***

Compound: [2H]C([2H])([2H])NC(=O)c1nnc(NC(=O)C2CC2)cc1Nc1cccc(-c2ncc(N3CC[C@H](O)C3)cn2)c1OC [Compound 53-j]
- Mouse Residuals at 60 min (%) [2]: 94.17%
- IC50 [1]: 5.1 nM

Compound: [2H]C([2H])([2H])NC(=O)c1nnc(NC(=O)C2CC2)cc1Nc1cccc(-c2ncc(-c3cncnc3C)cn2)c1OC [Compound 54-j]
- Mouse Residuals at 60 min (%) [2]: 92.35%
- IC50 [1]: 3.4 nM

Compound: [2H]C([2H])([2H])NC(=O)c1nnc(NC(=O)C2CC2)cc1Nc1cccc(-c2ncc(-n3ccnc3C)cn2)c1OC [Compound 55-j]
- IC50 [1]: 5.2 nM

Compound: [2H]C([2H])([2H])NC(=O)c1cnc(NC(=O)C2CC2)cc1Nc1cccc(-c2ncc(-c3cccnc3F)cn2)c1OC [Compound 57-j]
- IC50 [1]: 4.4 nM

Compound: [2H]C([2H])([2H])NC(=O)c1nnc(NC(=O)C2CC2)cc1Nc1cccc(-c2ncc(N3CC[C@@H](O)C3)cn2)c1OC [Compound 59-j]
- Mouse Residuals at 60 min (%) [2]: 100.66%
- IC50 [1]: 5 nM

Compound: [2H]C([2H])([2H])NC(=O)c1cnc(NC(=O)C2CC2)cc1Nc1cccc(-c2ncc(N3CCCC3)cn2)c1OC [Compound 60-j]
- IC50 [1]: 8.5 nM
